According to US20240043880A1, “IMPROVED METHODS FOR PRODUCTION, RECOVERY AND SECRETION OF HYDROPHOBIC COMPOUNDS IN A FERMENTATION” (BioPhero ApS, priority 2019, published 2024):

What was measured:
Chilo suppressalis = conditions: C. suppressalis, cited from earlier work
Helicoverpa armigera = conditions: H. armigera, cited from earlier work
[1] = tested on: Y. lipolytica strain ST8881; format: cell-based, Yarrowia lipolytica; conditions: antifoaming agent 3 v/v %
Excerpt: Strain ST8327 has been engineered to produce (Z)11-hexadecen-1-ol. […] The strain expresses the Δ11 desaturase from Amyelois transitella (SEQ ID NO: 1) and fatty acyl-CoA reductase from Helicoverpa armigera (SEQ ID NO: 5). Strain ST8762 has been engineered to produce (Z)9-tetradecen-1-ol. The strain expresses the Δ9 desaturase from Drosophila melanogaster (SEQ ID NO: 16) and fatty acyl-CoA reductase from Helicoverpa armigera (SEQ ID NO: 5). […] A strain was inoculated from a YPD agar plate (10 g/L yeast extract, 10 g/L peptone, 20 g/L glucose, 15 g/L agar agar) to an initial OD600 of 0.1-0.2 into 2.5 mL YPG medium (10 g/L yeast extract, 10 g/L peptone, 40 g/L glycerol) in 24 well-plate (EnzyScreen). The plate was incubated at 28° C. and 300 rpm for 22 hours. […] At the same time, 95 μL of Antifoam A (ethoxylated and propoxylated C16-18 alcohols, CAS No. 68002-96-0), corresponding to […] (i.e. above the recommended dose of 0.1 v/v % for foam management and above the cloud concentration), was added. The plate was incubated at 28° C. and 300 rpm for 28 hours. Each experiment was performed in biological triplicates.
The intracellular and extracellular concentrations of fatty alcohols were assessed as follows. 1000 μL of culture broth was transferred to a 4 mL gas-tight glass extraction vial. The sample was centrifuged at 3,500 g for 5 min at room temperature. The supernatant was transferred into a new glass vial with 990 μL of hexane and 10 μL of internal standard (IS) solution (20 mg/L of methyl Z10-heptadecanoate in ethyl acetate). The vial was vortexed for 10 s and centrifuged as before. 250 μL of the upper hexane phase was transferred to a GC vial for GC-MS analysis of the extracellular fatty alcohol concentration. The pellet remaining after the removal of the supernatant from the centrifuged culture broth was resuspended in 990 μL of solvent mixture (EtOAc and EtOH) and 10 μL of IS solution as above. The sample was incubated for 1 h with periodic mixing. 300 μL water was added and the vials were centrifuged at 3,500 g for 5 min at room temperature. 250 μL of the upper organic phase was transferred to a GC vial for GC-MS analysis of the intracellular fatty alcohols. GC-MS analyses were performed on an Agilent 7820A GC coupled to a mass selective detector Agilent 5977B. The GC was equipped with an DB Fatwax column (30 m×0.25 mm×0.25 μm), and helium was used as carrier gas. The MS was operated in electron impact mode (70 eV), scanning between m/z 30 and 400, and the injector was configured in split mode 20:1 at 220° C. Oven temperature was set to 80° C. for 1 min, then increased at a rate of 20° C./min to 210° C., followed by a hold at 210° C. for 7 min, and then increased at a rate of 20° C./min to 230° C. Compounds were identified by comparison of retention times and mass spectra of the reference compounds. Compounds were quantified by the ion 55.1 m/z. Data were analysed by the Agilent Masshunter software. The concentrations of fatty alcohols were calculated based on standard calibration curves prepared with reference standards.
Here we investigated the effect of different antifoaming oils and agents on the recovery of fatty alcohols in a separate phase. The experiments were performed with engineered Y. lipolytica strain ST8881 following the procedures as in Example 1.
The control experiment was performed without addition of any antifoaming oil or agent.

| SMILES | Behavioral response (Chilo suppressalis) | Behavioral response (Helicoverpa armigera) | % secretion of Z11.hexadecen-1-ol [1] | Extracellular concentration of Z11.hexadecen-1-ol [1] | Total concentration of Z11-hexadecen-1-ol [1] | Interaction with the two primary pheromone components Z11-16:Ald and Z13-18:Ald (Chilo suppressalis; Tatsuki et al.) | Effect on the activity of an artificial pheromone formulation when added to Z11-16:Ald (Helicoverpa armigera; Kehat et al., 1990) |
| --- | --- | --- | --- | --- | --- | --- | --- |
| CCCCCCCCCCCCCCCC=O [16:Ald, n-Hexadecanal] | does not elicit a behavioral response | neutral | – | – | – | – | – |
| CCCCCCCCCCCC [Dodecane] | – | – | 0 (0%) | 0 (0%) | 720.0 ± 95.6 mg/L | – | – |
| CCCCCCCC/C=C\CCCCCCCC(=O)O [Oleic acid] | – | – | 0 (0%) | 0 (0%) | 1008.4 ± 648.6 mg/L | – | – |
| CCCCCC/C=C\CCCCCCCC=O [Z9-16:Ald] | – | – | – | – | – | synergistic | enhance the activity |
